Assay results reported in EP0414895A1, “OROTATE OF $g(a)-AMINO-$g(b)-PHENYL-BUTYRIC ACID” (NAUCHNO-PROIZVODSTVENNOE OBIEDINENIE "BIOLAR", priority 1989, dated 1990).
Counter-ions that a name gives are not always drawn.

Columns and labels:
Mäuse [1] = experiment: Conflict situation (punished water intake); format: in vivo; conditions: 45 to 120 min before test
Source text: Es wurde auch die Wirkung der erfindungsgemässen Verbindung unter Bedingungen einer Konfliktsituation an männlichen Mäusen (Gruppe aus I0 Mäusen) untersucht. Vorläufig wurde den Mäusen das Wasser für 48 Stunden entzogen, danach wurden ihnen 45 bis I20 Minuten vor dem Versuch die Verbindungen intraperitoneal eingeführt und die Tiere wurden in der Kammer untergebracht, wo sich eine Wassertränke befand. Im Augenblick der Wassereinnahme bekam es einen elektrischen Schlag, der am Zähler registriert wurde. In der Prüfkammer befand sich das Tier innerhalb von 3 Minuten. Für diese Zeit wurden die Zahl der Wassereinnahmen sowie die Lazenzperiode - die Zeit zwischen dem Unterbringen des Tiers in der Kammer und der ersten Wassereinnahme - registriert. Die durchschnittlichen Angaben sind in der Tabelle 5 angeführt.

Mäuse [2] = experiment: Swimming test at 40°C; format: in vivo; conditions: for Schwimmzeit: 40°C
Source text: (§1) Der Einfluss der beanspruchten Verbindung auf die physische Toleranz der Tiere wurde nach dem Schwimmtest der Mäuse und Ratten untersucht. Die Versuche wurden in einer Wanne von […] Fläche durchgeführt. Die Tiergruppe (8 bis I0 Mäuse oder Ratten) wurde ins Wasser gebracht und es wurde die Zeit der Schwimmfähigkeit bestimmt. Die neue Verbindung und γ -Amino- β - -phenylbuttersäurehydrochlorid wurden enteral und intraperitoneal I Stunde oder 3 Stunden vor dem Schwimmbeginn eingeführt. Die Untersuchung wurde sowohl nach der einmaligen als auch nach der chronischen (innerhalb von 20 Tagen einmal täglich) Einführung der genannten Verbindungen durchgeführt. Die Versuche wurden bei 3 Temperaturen angestellt: 2°C (Tabelle I7), 25°C (Tabelle I8) und 40°C (Tabelle I9).

Mäuse [3] = experiment: Motor and orientation activity in photoelectric actometer; format: in vivo; conditions: counted 60 min from 10 min after dosing
Source text: Zur Bestimmung der sedativen Wirksamkeit wurde die motorische und Orientierungsaktivität und die motorische Fähigkeit in Versuchen an Mäusen und Ratten untersucht.
Den Versuchstieren wurden die beanspruchte Verbindung, γ -Amino- β -phenylbuttersäurehydrochlorid und Pyrazetam eingeführt. Als Kontrolle diente die physiologische Lösung (0,9%ige NaCl-Lösung). Die Untersuchungen wurden an I0 bis I2 erwachsenen Tieren (Mäuse, Ratten) durchgeführt.
Bei der Bestimmung der motorischen und Orientierungsaktivität wurde jede Maus in einer Einzelkamner des photoelektrischen Aktometers untergebracht. Die motorische und Orientierungsaktivität wurde nach der Zahl der Impulse bestimmt, die beim Berühren der Aktometerkontakte durch das Tier entstanden. Das Zählen der Im pulse wurde I0 min nach der intraperitonealen Einführung der genannten Verbindungen begonnen und dauerte innerhalb von 60 min. Die Angaben sind in der Tabelle I angeführt.

Ratten [4] = experiment: Natriumäthaminal intoxication, sleep duration, rats; format: in vivo
Experimental: (§2) Ausserdem wurde die Wirkung der beanspruchten Verbindung auf die durch Natriumäthaminal erzeugte Intoxikation untersucht. Die Versuche wurden an männlichen Mäusen und Ratten in Gruppen zu 8 bis I0 Tieren angestellt. Natriumäthaminal wurde intraperitoneal in einner Dosis von I00 mg/kg I5 min nach der enteralen Verabreichung der beanspruchten Verbindung oder der Kontrollarzneimittel eingeführt. Es wurde die einmalige und chronische Einwirkung (während I2 bis I4 Tage einmal täglich) von der neuen Verbindung, γ -Amino- β - -phenylbuttersäurehydrochlorid und Pyrazetam untersucht. Es wurde die Dauer der Seitenlage - des Schlafs der Tiere bestimmt. Die Ergebnisse dieser Untersuchung sind in Tabelle 23 (für Mäuse) und 24 (für Ratten) angeführt.

Mäuse [5] = experiment: Thresholds of emotional reactivity and aggressiveness on electric pain stimulation, mice; format: in vivo
Source text: Es wurde auch die emotionelle Aktivität und Aggressivität der Tiere auf dem Wege der elektrischen Schmerzreizung untersucht.
(§3) In einer Kammer von 20 x 20 x 25 cm Ausmass, deren Boden - ein Metallgitter aus Stangen darstellt, wurde ein Paar Tiere untergebracht (männliche Mäuse) und es wurde der Wechselstrom durchgelassen. Die Spannung wurde dosenartig auf 5 V solange erhöht, bis der Strom das Piepsen (die Schwelle der emotionellen Reaktivität) und die Schlägerei der Tiere (die Schwelle der Aggressivität) auslöste. Jede Spannungsgrösse wurde innerhalb von 5 sec zweimal in einem Zeitabstand von 20 bis 50 Sekunden aufrechterhalten. Die Kontrolle des Benehmens der Tiere begann man I0 Minuten nach der Einführung der oben erwähnten Verbindungen. Die Angaben sind in Tabellen 3, 4 angeführt.

Mäuse [6] = experiment: Natriumäthaminal intoxication, sleep duration, mice; format: in vivo
Experimental: as §2

Mäuse [7] = experiment: Hypoxia by subcutaneous Natriumnitroprussid, survival, mice; format: in vivo
Experimental: (§4) Die […] Hypoxie wurde durch die subkutane Einführung von Natriumnitroprussid in einer Dosis von 20 mg/kg den Gruppen von Mäusen und Ratten zu I0 Stück in der Gruppe erzeugt. Natriumnitroprussid wurde 60 min nach der Einführung der Prüfverbindungen verabreicht. Die Angaben sind in Tabelle I5 (für Mäuse) und I6 (für Ratten) angeführt.

Ratten [8] = experiment: Hypoxia by subcutaneous Natriumnitroprussid, survival, rats; format: in vivo; conditions: Natriumnitroprussid 20 mg/kg s.c.
Experimental: as §4

Ratten [9] = experiment: Swimming test at 2°C, rats; format: in vivo
Source text: as §1

Ratten [10] = experiment: Thresholds of emotional reactivity and aggressiveness on electric pain stimulation, rats; format: in vivo
[11] = Habituation study: body mass; format: in vivo, Mäuse; conditions: 75 mg/kg bzw. 48 mg/kg i.p. twice daily, 15 to 20 days
Experimental: (§5) Zur Untersuchung der Gewöhnung an die Wirkung der erfindungsgemässen Verbindung wurde die Dynamik der Benehmungseffekte an Mäusen beiderlei Geschlechts untersucht. In jeder Gruppe waren je I2 bis I8 Tiere. Die erfindungsgemässe Verbindung und γ -Amino- β - -phenylbuttersäurehydrochlorid wurden intraperitoneal in Dosen von 75 mg/kg bzw. 48 mg/kg zweimal am Tag eingeführt. Es wurden die Körpermasse, der Einfluss auf die motorische Aktivität (im Aktometer) und auf die emotionelle Reaktivität aud dem Wege der elektrischen Schmerzreizung untersucht. Die Tiere wurden innerhalb von 15 bis 20 Tagen untersucht. […] Der sedative Effekt der beanspruchten Verbindung war während der ganzen Versuchsperiode aufrechterhalten (Tabelle 7).

Mäuse [12] = experiment: Habituation study: electric pain stimulation thresholds on repeated dosing; format: in vivo
Source text: as §3, §5

[13] = 50 mg/kg chronic, 14 days + Natriumäthaminal 100 mg/kg i.p.
[14] = 50 mg/kg single + Natriumäthaminal 100 mg/kg i.p.
[15] = day 1, 48 mg/kg i.p. twice daily
[16] = day 5, 48 mg/kg i.p. twice daily
[17] = day 10, 48 mg/kg i.p. twice daily
[18] = day 1, 75 mg/kg i.p. twice daily
[19] = day 5, 75 mg/kg i.p. twice daily
[20] = day 10, 75 mg/kg i.p. twice daily
[21] = day 15, 75 mg/kg i.p. twice daily

NCC(CC(=O)O)c1ccccc1 (stereo not drawn) [γ-Amino-β-phenylbutter-säurehydrochlorid, γ -Amino- β -phenylbuttersäurehydrochlorid, reference compound]
Latenzperiode (Mäuse [1]; 16 mg/kg i.p.): 36,4±6,8 sec | Schwimmzeit (Mäuse [2]; 35 mg/kg chronic, 20 days): 58±7,2 min | Schwimmzeit (Mäuse [2]; 35 mg/kg single): 37,8±8 min | Anzahl der Impulse im Aktometer (Mäuse [3]; 16 mg/kg i.p.): 368±51 | Anzahl der Impulse im Aktometer (Mäuse [3]; 32 mg/kg i.p.): 238±28 | Anzahl der Impulse im Aktometer (Mäuse [3]; 40 mg/kg i.p.): 158±21 | Schlafdauer (Ratten [4]; [13]): 290,0±17 min | Schlafdauer (Ratten [4]; [14]): 288,6±27 min | Spannung in V, Schwelle der emotionellen Reaktivität (Mäuse [5]; 100 mg/kg): 24,2±0,8 V | Schlafdauer (Mäuse [6]; 35 mg/kg chronic, 12 days + Natriumäthaminal 100 mg/kg i.p.): 390,0±37 min | Schlafdauer (Mäuse [6]; 35 mg/kg single + Natriumäthaminal 100 mg/kg i.p.): 274,3±32 min | Überlebensdauer (Mäuse [7]; Natriumnitroprussid 20 mg/kg s.c., 35 mg/kg chronic, 10 days once daily): 515,6±34 sec | Überlebensdauer (Ratten [8]; 35 mg/kg chronic, 10 days once daily): 876,6±90 sec | Überlebensdauer (Ratten [8]; 35 mg/kg single): 1359,0±100 sec | Schwimmzeit, Ratten (Ratten [9]; 35 mg/kg chronic, 20 days): 328,8±34 | Schwimmzeit, Ratten (Ratten [9]; 35 mg/kg single): 304,3±29 | Spannung in V, die Schwelle der Aggressivität (Ratten [10]; 80,0 mg/kg): 44,6±0,6 V | Körpermasse [11]: veränderte sich wesentlich nicht | Spannung in V, die Schwelle der Aggressivität (Mäuse [12]; [15]): 29±2 V | Spannung in V, die Schwelle der emotionellen Reaktivität (Mäuse [12]; [15]): 24±2 V | Spannung in V, die Schwelle der Aggressivität (Mäuse [12]; [16]): 27±4 V | Spannung in V, die Schwelle der emotionellen Reaktivität (Mäuse [12]; [16]): 23±2 V | Spannung in V, die Schwelle der Aggressivität (Mäuse [12]; [17]): 26±3 V | Spannung in V, die Schwelle der emotionellen Reaktivität (Mäuse [12]; [17]): 20±2 V | Spannung in V, die Schwelle der Aggressivität (Mäuse [12]; day 15, 48 mg/kg i.p. twice daily): 24±2 V

γ -Amino- β -phenylbuttersäureorotat [Erfindungsgemässe Verbindung]
Anzahl der Wassereinnahmen für 3 Minuten (Mäuse [1]; 25 mg/kg i.p.): 5,6±0,7 | Latenzperiode (Mäuse [1]; 25 mg/kg i.p.): 52,4±20 sec | Schwimmzeit (Mäuse [2]; 50 mg/kg single): 57,6±5,6 min | Schwimmdauer grösser um das ...fache bei einer Temperatur von 40°C (Mäuse [2]; after 20 days chronic administration, Tabelle I9, compared with γ-Amino-β-phenylbuttersäurehydrochlorid as worded): 2,5 fache | Anzahl der Impulse im Aktometer (Mäuse [3]; 25 mg/kg i.p.): 322±43 | Anzahl der Impulse im Aktometer (Mäuse [3]; 50 mg/kg i.p.): 208±27 | Anzahl der Impulse im Aktometer (Mäuse [3]; 75 mg/kg i.p.): 123±18 | Schlafdauer (Ratten [4]; 25 mg/kg single + Natriumäthaminal 100 mg/kg i.p.): 314,8±22 min | Schlafdauer (Ratten [4]; [13]): 167,4±23 min | Schlafdauer (Ratten [4]; [14]): 306,4±16 min | Spannung in V, Schwelle der Agressivität (Mäuse [5]; 37 mg/kg): 29,8±2,4 V | Schlafdauer (Mäuse [6]; 50 mg/kg chronic, 12 days + Natriumäthaminal 100 mg/kg i.p.): 178,4±14 min | Schlafdauer (Mäuse [6]; [14]): 261,3±21 min | Überlebensdauer (Mäuse [7]; Natriumnitroprussid 20 mg/kg s.c. 60 min after compound, 50 mg/kg single): 740,3±68 sec | Überlebensdauer (Mäuse [7]; Natriumnitroprussid 20 mg/kg s.c., 50 mg/kg chronic, 10 days once daily): 1083,7±80 sec | Überlebensdauer (Ratten [8]; 50 mg/kg chronic, 10 days once daily): 1133,0±54 sec | Überlebensdauer (Ratten [8]; 50 mg/kg single): 1247,0±94 sec | Schwimmzeit, Ratten (Ratten [9]; 30 mg/kg chronic, 20 days): 390,0±56 | Spannung in V, die Schwelle der emotionnellen Reaktivität (Ratten [10]; 20,0 mg/kg): 23,4±0,8 V | Spannung in V, die Schwelle der emotionnellen Reaktivität (Ratten [10]; 40,0 mg/kg): 27,6±0,4 V | Spannung in V, die Schwelle der Aggressivität (Ratten [10]; 60,0 mg/kg): 44,8±0,6 V | Spannung in V, die Schwelle der emotionnellen Reaktivität (Ratten [10]; 150,0 mg/kg): 34,2±2,2 V | Körpermasse [11]: veränderte sich wesentlich nicht | Spannung in V, die Schwelle der Aggressivität (Mäuse [12]; [18]): 30±3 V | Spannung in V, die Schwelle der emotionellen Reaktivität (Mäuse [12]; [18]): 22±2 V | Spannung in V, die Schwelle der Aggressivität (Mäuse [12]; [19]): 29±2 V | Spannung in V, die Schwelle der emotionellen Reaktivität (Mäuse [12]; [19]): 23±2 V | Spannung in V, die Schwelle der Aggressivität (Mäuse [12]; [20]): 29±2 V | Spannung in V, die Schwelle der emotionellen Reaktivität (Mäuse [12]; [20]): 24±3 V | Spannung in V, die Schwelle der Aggressivität (Mäuse [12]; [21]): 34±3 V | Spannung in V, die Schwelle der emotionellen Reaktivität (Mäuse [12]; [21]): 22±2 V
